From US8124793B2, “Derivatives of ethylene methanedisulfonate as cancer chemotherapeutic agents” (priority 2007, dated 2012)

Experiments:
Type in all cases: cell-based
MOLT-4 = test: NCI screen, growth of human tumor cells: Leukemia MOLT-4; details: MOLT-4 (Leukemia), 10^−4 molar
Outline: (§1)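 Growth of human tumor cells, expressed as percent, was determined in the NCI screen. Test data list the cancer type and the molar concentration applied.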

RPMI-8226 = test: NCI screen, growth of human tumor cells: Leukemia RPMI-8226; details: RPMI-8226 (Leukemia), 10^−4 molar
Outline: as §1

EKVX = test: NCI screen, growth of human tumor cells: Non-Small Cell Lung EKVX; details: EKVX, 10^−4 molar
Outline: as §1

HOP-62 = test: NCI screen, growth of human tumor cells: Non-Small Cell Lung HOP-62; details: HOP-62 (Non-Small Cell Lung), 10^−4 molar
Outline: as §1

NCI-H226 = test: NCI screen, growth of human tumor cells: Non-Small Cell Lung NCI-H226; details: NCI-H226 (Non-Small Cell Lung), 10^−4 molar
Outline: as §1

NCI-H522 = test: NCI screen, growth of human tumor cells: Non-Small Cell Lung NCI-H522; details: NCI-H522, 10^−4 molar
Outline: as §1

NCI-H460 = test: NCI screen, growth of human tumor cells: Non-Small Cell Lung NCI-H460; details: NCI-H460 (Non-Small Cell Lung), 10^−4 molar
Outline: as §1

NCI-H322M = test: NCI screen, growth of human tumor cells: Non-Small Cell Lung NCI-H322M; details: NCI-H322M (Non-Small Cell Lung), 10^−4 molar
Outline: as §1

NCI-H23 = test: NCI screen, growth of human tumor cells: Non-Small Cell Lung NCI-H23; details: NCI-H23, 10^−4 molar
Outline: as §1

HCC-2998 = test: NCI screen, growth of human tumor cells: HCC-2998 (listed under Non-Small Cell Lung); details: HCC-2998, 10^−4 molar
Outline: as §1

HCT-116 = test: NCI screen, growth of human tumor cells: Colon Cancer HCT-116; details: HCT-116 (Colon Cancer), 10^−4 molar
Outline: as §1

HCT-15 = test: NCI screen, growth of human tumor cells: Colon Cancer HCT-15; details: HCT-15 (Colon Cancer), 10^−4 molar
Outline: as §1

HT29 = test: NCI screen, growth of human tumor cells: Colon Cancer HT29; details: HT29 (Colon Cancer), 10^−4 molar
Outline: as §1

SW620 = test: NCI screen, growth of human tumor cells: Colon Cancer SW620; details: SW620 (Colon Cancer), 10^−4 molar
Procedure: (§2) In the NCI screening process, each compound was tested and described by a minimum of 60 data points. The test data include, but are not limited to the type of cancer, the molar concentration used in the screen, and the percent growth of the cancer. In some cases, NMR and elemental analysis were used for structural assignment.

SF-268 = test: NCI screen, growth of human tumor cells: CNS Cancer SF-268; details: SF-268 (CNS Cancer), 10^−4 molar
Outline: as §1

SNB-19 = test: NCI screen, growth of human tumor cells: CNS Cancer SNB-19; details: SNB-19 (CNS Cancer), 10^−4 molar
Outline: as §1

SF-539 = test: NCI screen, growth of human tumor cells: CNS Cancer SF-539; details: SF-539 (CNS Cancer), 10^−4 molar
Outline: as §1

U-251 = test: NCI screen, growth of human tumor cells: CNS Cancer U-251; details: U-251 (CNS Cancer), 10^−4 molar
Outline: as §1

LOXIMVI = test: NCI screen, growth of human tumor cells: Melanoma LOXIMVI; details: LOXIMVI (Melanoma), 10^−4 molar
Outline: as §1

M14 = test: NCI screen, growth of human tumor cells: Melanoma M14; details: M14 (Melanoma), 10^−4 molar
Outline: as §1

SK-MEL-28 = test: NCI screen, growth of human tumor cells: Melanoma SK-MEL-28; details: SK-MEL-28 (Melanoma), 10^−4 molar
Outline: as §1

SK-MEL-5 = test: NCI screen, growth of human tumor cells: Melanoma SK-MEL-5; details: SK-MEL-5 (Melanoma), 10^−4 molar
Outline: as §1

UACC-257 = test: NCI screen, growth of human tumor cells: Melanoma UACC-257; details: UACC-257 (Melanoma), 10^−4 molar
Outline: as §1

UACC-62 = test: NCI screen, growth of human tumor cells: Melanoma UACC-62; details: UACC-62 (Melanoma), 10^−4 molar
Outline: as §1

IGROVI = test: NCI screen, growth of human tumor cells: Ovarian Cancer IGROVI; details: IGROVI (Ovarian Cancer), 10^−4 molar
Outline: as §1

OVCAR-3 = test: NCI screen, growth of human tumor cells: Ovarian Cancer OVCAR-3; details: OVCAR-3 (Ovarian Cancer), 10^−4 molar
Outline: as §1

OVCAR-4 = test: NCI screen, growth of human tumor cells: Ovarian Cancer OVCAR-4; details: OVCAR-4, 10^−4 molar
Outline: as §1

OVCAR-5 = test: NCI screen, growth of human tumor cells: Ovarian Cancer OVCAR-5; details: OVCAR-5 (Ovarian Cancer), 10^−4 molar
Outline: as §1

OVCAR-8 = test: NCI screen, growth of human tumor cells: Ovarian Cancer OVCAR-8; details: OVCAR-8 (Ovarian Cancer), 10^−4 molar
Procedure: as §2

786-0 = test: NCI screen, growth of human tumor cells: Renal Cancer 786-0; details: 786-0 (Renal Cancer), 10^−4 molar
Outline: as §1

ACHN = test: NCI screen, growth of human tumor cells: Renal Cancer ACHN; details: ACHN (Renal Cancer), 10^−4 molar
Outline: as §1

RXF-393 = test: NCI screen, growth of human tumor cells: Renal Cancer RXF-393; details: RXF-393 (Renal Cancer), 10^−4 molar
Outline: as §1

SN12C = test: NCI screen, growth of human tumor cells: Renal Cancer SN12C; details: SN12C (Renal Cancer), 10^−4 molar
Outline: as §1

CAKI-1 = test: NCI screen, growth of human tumor cells: Renal Cancer CAKI-1; details: CAKI-1 (Renal Cancer), 10^−4 molar
Outline: as §1

DU-145 = test: NCI screen, growth of human tumor cells: Prostate Cancer DU-145; details: DU-145 (Prostate Cancer), 10^−4 molar
Outline: as §1

MCF 7 = test: NCI screen, growth of human tumor cells: Breast Cancer MCF 7; details: MCF 7 (Breast Cancer), 10^−4 molar
Outline: as §1

MCF7/ADR-RES = test: NCI screen, growth of human tumor cells: Breast Cancer MCF7/ADR-RES; details: MCF7/ADR-RES (Breast Cancer), 10^−4 molar
Outline: as §1

BT-549 = test: NCI screen, growth of human tumor cells: Breast Cancer BT-549; details: BT-549 (Breast Cancer), 10^−4 molar
Outline: as §1

HS 578T = test: NCI screen, growth of human tumor cells: Breast Cancer HS 578T; details: HS 578T (Breast Cancer), 10^−4 molar
Outline: as §1

MDA-MB-231/ATCC = test: NCI screen, growth of human tumor cells: Breast Cancer MDA-MB-231/ATCC; details: MDA-MB-231/ATCC (Breast Cancer), 10^−4 molar
Procedure: as §2

MDA-MB-435 = test: NCI screen, growth of human tumor cells: Breast Cancer MDA-MB-435; details: MDA-MB-435 (Breast Cancer), 10^−4 molar
Outline: as §1

MDA-N = test: NCI screen, growth of human tumor cells: Breast Cancer MDA-N; details: 10^−4 molar
Procedure: as §2

human cancer cells = test: NCI screen summary over the cancers tested (negative growth of human cancer cells); details: 10^−4 M conc.; cancers with negative growth / cancers tested
Procedure: as §2
The derivatives in the tables are grouped using the same category as in the tables 1-6.

## CCOCC1(COCC)S(=O)(=O)OCCOS1(=O)=O [NSC 698120]
MOLT-4
  percent of growth of human tumor cells: 23%
RPMI-8226
  percent of growth of human tumor cells: 10%
EKVX
  % Growth: −99%
HOP-62
  percent of growth of human tumor cells: 23%
NCI-H226
  percent of growth of human tumor cells: 0%
NCI-H522
  % Growth: −83%
NCI-H460
  percent of growth of human tumor cells: −38%
NCI-H322M
  percent of growth of human tumor cells: 20%
NCI-H23
  % Growth: −72%
HCC-2998
  % Growth: −92%
HCT-116
  percent of growth of human tumor cells: −6%
HCT-15
  percent of growth of human tumor cells: −27%
HT29
  percent of growth of human tumor cells: −3%
SW620
  percent of growth of human tumor cells: −3%
SF-268
  percent of growth of human tumor cells: 21%
SNB-19
  percent of growth of human tumor cells: 14%
SF-539
  percent of growth of human tumor cells: 20%
U-251
  percent of growth of human tumor cells: −47%
LOXIMVI
  percent of growth of human tumor cells: −25%
M14
  percent of growth of human tumor cells: −36%
SK-MEL-28
  percent of growth of human tumor cells: 12%
SK-MEL-5
  percent of growth of human tumor cells: 25%
UACC-257
  percent of growth of human tumor cells: −14%
UACC-62
  percent of growth of human tumor cells: −36%
IGROVI
  percent of growth of human tumor cells: −28%
OVCAR-3
  percent of growth of human tumor cells: −13%
OVCAR-4
  % Growth: −88%
OVCAR-5
  percent of growth of human tumor cells: −28%
OVCAR-8
  percent of growth of human tumor cells: −43%
786-0
  percent of growth of human tumor cells: 15%
ACHN
  percent of growth of human tumor cells: 18%
RXF-393
  percent of growth of human tumor cells: −36%
SN12C
  percent of growth of human tumor cells: 24%
CAKI-1
  percent of growth of human tumor cells: 7%
DU-145
  percent of growth of human tumor cells: 24%
MCF 7
  percent of growth of human tumor cells: 27%
MCF7/ADR-RES
  percent of growth of human tumor cells: −26%
BT-549
  percent of growth of human tumor cells: −4%
HS 578T
  percent of growth of human tumor cells: 15%
MDA-MB-231/ATCC
  percent of growth of human tumor cells: 18%
MDA-MB-435
  percent of growth of human tumor cells: 1%
MDA-N
  percent of growth of human tumor cells: 3%
Human cancer cells
  Percentage of cancers showing negative growth cancers tested: 10^−4 M conc. = 22/42 = 52%
